# Where two headings read alike, the source gives them in different places.
# Key:
# CYP3A4 = CYP3A4 (Homo sapiens, UniProt P08684); test: Cytochrome inhibition, fluorometric microtiter plate assay (substrate BFC); format: biochemical
# Description: (§1) Among the xenobiotic-metabolizing CYPs, five forms, CYP1A2, CYP2C9, CYP2C19, CYP2D6 and CYP3A4 appear to be the major CYP isoforms responsible for the oxidative metabolism of drugs or xenobiotics. Inhibition of CYP-mediated metabolism, often the mechanism for drug-drug interactions, can limit the use of a drug because of adverse clinical effects. The potential for CYP enzyme inhibition is routinely assessed by performing in vitro inhibition studies by measuring the rates of metabolism of a probe biotransformation in the presence and absence of test molecules. […] The incubation conditions for each cytochrome isoform were as follow: [table]
# CYP2D6 = CYP2D6 (Homo sapiens, UniProt P10635); test: Cytochrome inhibition, fluorometric microtiter plate assay (substrate AMMC); format: biochemical
# Description: as §1
# [1] = biological target: human histamine H3 receptors (Homo sapiens, UniProt Q9Y5N1); test: H3 binding ([125I]iodoproxyfan, membranes); settings: hH3 binding of the radioligand
# Protocol: Membranes expressing human histamine H3 receptors were incubated 1 hour at room temperature in binding buffer containing 50 mM Na2HPO4/KH2PO4 pH 7.5 in a final volume of 200 µl. […] Non-specific binding was determined in the presence of 1 µM lmetit. The reaction was stopped by rapid filtration through GF/B filters (pre-soaked for 2 hours with 0.3% polyethyleneimine) followed by 3 ice cold binding buffer washes. The filter-bound radioactivity was measured in a liquid scintillation counter with 50µl of scintillation fluid.
# [2] = compounds of the invention, human recombinant CYP3A4
# [3] = compounds of the invention, human recombinant CYP2D6
# CYP2D6, sequence (P10635 whole entry): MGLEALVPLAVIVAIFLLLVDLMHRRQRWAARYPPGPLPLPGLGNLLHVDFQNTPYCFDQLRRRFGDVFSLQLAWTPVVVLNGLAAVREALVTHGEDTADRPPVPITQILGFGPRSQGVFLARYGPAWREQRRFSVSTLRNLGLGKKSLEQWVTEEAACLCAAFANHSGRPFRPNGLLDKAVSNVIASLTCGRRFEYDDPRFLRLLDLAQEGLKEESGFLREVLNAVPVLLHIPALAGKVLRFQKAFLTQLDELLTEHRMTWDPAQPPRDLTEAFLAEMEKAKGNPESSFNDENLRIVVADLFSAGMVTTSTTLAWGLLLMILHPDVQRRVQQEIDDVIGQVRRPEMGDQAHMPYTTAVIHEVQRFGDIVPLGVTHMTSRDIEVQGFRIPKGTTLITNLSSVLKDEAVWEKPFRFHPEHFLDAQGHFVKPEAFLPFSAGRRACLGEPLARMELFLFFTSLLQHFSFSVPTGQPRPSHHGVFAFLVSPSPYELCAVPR
# CYP3A4, sequence (P08684 whole entry, canonical isoform): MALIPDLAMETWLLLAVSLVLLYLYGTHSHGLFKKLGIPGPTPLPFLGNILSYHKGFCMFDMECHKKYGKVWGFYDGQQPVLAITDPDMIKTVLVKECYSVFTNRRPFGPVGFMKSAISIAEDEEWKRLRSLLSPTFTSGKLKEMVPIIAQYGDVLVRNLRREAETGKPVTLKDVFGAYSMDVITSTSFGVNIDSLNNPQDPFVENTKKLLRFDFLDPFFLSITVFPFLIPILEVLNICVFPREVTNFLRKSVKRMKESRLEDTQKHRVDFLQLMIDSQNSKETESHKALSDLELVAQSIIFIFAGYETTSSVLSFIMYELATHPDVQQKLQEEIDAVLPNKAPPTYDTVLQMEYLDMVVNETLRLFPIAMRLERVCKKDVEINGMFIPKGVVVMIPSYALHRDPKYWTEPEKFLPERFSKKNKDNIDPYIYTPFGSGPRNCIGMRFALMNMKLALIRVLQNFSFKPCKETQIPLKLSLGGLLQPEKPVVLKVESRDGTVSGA
# human histamine H3 receptors, sequence (Q9Y5N1 whole entry): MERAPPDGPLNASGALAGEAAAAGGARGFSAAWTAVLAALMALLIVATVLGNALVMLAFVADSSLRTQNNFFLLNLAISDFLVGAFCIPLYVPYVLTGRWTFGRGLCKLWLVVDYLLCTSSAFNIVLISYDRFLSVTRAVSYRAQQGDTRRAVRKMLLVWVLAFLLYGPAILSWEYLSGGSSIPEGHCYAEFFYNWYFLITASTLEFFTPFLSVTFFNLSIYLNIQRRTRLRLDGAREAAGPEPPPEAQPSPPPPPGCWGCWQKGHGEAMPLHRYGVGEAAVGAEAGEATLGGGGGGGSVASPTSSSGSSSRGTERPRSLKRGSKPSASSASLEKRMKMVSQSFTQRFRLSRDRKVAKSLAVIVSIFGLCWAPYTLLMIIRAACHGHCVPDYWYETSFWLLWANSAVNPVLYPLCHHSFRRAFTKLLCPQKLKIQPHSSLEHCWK
Structure (SMILES),IC50 (CYP3A4; [2]) [µM],IC50 (CYP2D6; [3]) [µM],other results
"C[C@H]1C[C@H](C)CN(CCCOc2ccc(C3=NCCC3)cc2)C1 (relative stereo) [Example 17, trans-1-{3-[4-(4,5-dihydro-3H-pyrrol-2-yl)phenoxy]propyl}-3,5-dimethylpiperidine]",> 100,> 100,–
"C[C@H]1C[C@H](C)CN(CCCOc2ccc(C(=O)N(C)C)cc2)C1 (relative stereo) [Example 1, trans-1-{3-[4-(N,N-dimethylcarbamoyl)phenoxy]propyl}-3,5-dimethylpiperidine]",–,> 100,–
Ic1ccc(COCCCc2cnc[nH]2)cc1 [[^125]iodoproxyfan],–,–,Kd [1]: 78 ± 6 pM
"Cc1ccc(-c2ccc(OCCCN3CCCCC3)cc2)cc1 [Example 24, 1-{3-[(4'-methylbiphenyl-4-yl)oxy]propyl}piperidine]",> 2,–,–
Cc1cc(-c2ccc(OCCCN3CCC[C@H](C)C3)cc2)ccn1 [Example 59],–,–,"IC50 (CYP3A4; read-out: CYP3A4 (IC50, concentrations for 50% inhibition), comparative compounds of WO 00/06254): > 1 µM; IC50 (CYP2D6; read-out: CYP2D6 (IC50, concentrations for 50% inhibition), comparative compounds of WO 00/06254): 1 µM"

# — EP1717234A1, “Phenoxypropylpiperidines and -pyrrolidines and their use as histamine H3-receptor ligands” (BIOPROJET, priority 2005, dated 2006)
